Values joined by “and” are separate entries in the source; they are usually repeats but may differ in a detail not shown here. Identical values can stand only once. Like-named read-outs stand apart in the source and are kept apart here.
Legend:
[1] = tested on: 60 cancer cell lines (NCI 60 cancer cell line series); assay: NCI-DTP in vitro cancer screen, sulforhodamine B (SRB) growth inhibition, 48 hour exposure; assay type: cell-based, human
Experimental: Cancer Cell Line Preparation. Sixty cancer cell lines were obtained from the National Cancer Institute Developmental Therapeutics Program (NCI-DTP). Procedures for growing cells and testing compounds have been described previously (Scudiero et al., Cancer Res. 1988, 48:4827-4833; Stinson et al., Anticancer Res.; Myers et al., Electrophoresis 1997, 18:647-653). Cells are plated on day 0 at a density individualized for each cell line so that they will generally be sub-confluent at the end of the assay period. On day 1, a compound is added in the format for a duplicate-well, 5-dose, ten-fold interval dose response study.
No-drug, no-cell and no-growth controls are included. On day 3 the cells are processed for staining with sulforhodamine B (SRB), which reflects the amount of cell mass present at the end of a 48 hour exposure to the test agent. From dose response curves based on the SRB data, various parameters can be determined. The one used in the present study is the G15o, defined as the concentration of compound required to inhibit growth of the cell line by 50%. More precisely, the quantity used in the calculation to be described is the potency measure -log{GI50}.
Activity database (A). Table IA, consisting of the growth inhibition (GI5o) values for the 60 cell lines and 24 compounds, was created from the NCI-DTP in vitro cancer screen database. This subset of compounds was selected from the larger 23,000 compound database available from the DTP. The compounds were selected on the basis of their known mechanism of action and chemical structure. The average potency—log{GI50} was extracted from the comma-delimited text files available through the Web at http://www.nci.nih.gov/intra/lmp/jnwbio.htmrl. Subsequently, these log{GI5o} values were inspected manually and classified as indicating either Low, Medium or High sensitivity to each compound.

[2] = tested on: 60 cancer cell lines (NCI 60 cancer cell line series); conditions: cited from earlier work

## OC[C@H]1O[C@@H](n2cnc3c2N=CNC[C@H]3O)C[C@@H]1O [2′-deoxycoformycin]
[1]
  1 # of Low: 9
  2 # of Medium: 43
  3 # of High: 8
  classification of cell line as Low(1), Medium(2) or High(3) sensitivity to compound: 2 and 1 and 3
  sensitivity class Prostate PC-3(I) CL11001: 1
  sensitivity class Renal 786-O CL9018: 2
  sensitivity class Renal A498 CL9013: 2
  sensitivity class Renal ACHN CL9023: 2
  sensitivity class Renal CAKI-1 CL9015: 3
  sensitivity class Renal RXF-393 CL9016: 3
  sensitivity class Renal SN12C CL9008: 2
  sensitivity class Renal TK10 CL9024: 1
  sensitivity class Renal UO-31 CL9004: 2
  sensitivity class of the cell line to the compound (1 Low, 2 Medium, 3 High): 3 and 2
[1]; Colon SW-620 (CL4009)
  classification of cell line as Low(1), Medium(2) or High(3) sensitivity to compound: 2
[1]; Leukemia CCRF-CEM(I) (CL7003)
  classification of cell line as Low(1), Medium(2) or High(3) sensitivity to compound: 2
[1]; Leukemia HL-60(I) (CL7008)
  classification of cell line as Low(1), Medium(2) or High(3) sensitivity to compound: 2
[1]; Leukemia K562(I) CL7005
  classification of cell line as Low(1), Medium(2) or High(3) sensitivity to compound: 2
[1]; Leukemia MOLT-4 (CL7006)
  classification of cell line as Low(1), Medium(2) or High(3) sensitivity to compound: 2
[1]; Leukemia RPMI-8226(I) (CL7010)
  classification of cell line as Low(1), Medium(2) or High(3) sensitivity to compound: 2
[1]; Leukemia SR CL7019
  classification of cell line as Low(1), Medium(2) or High(3) sensitivity to compound: 3
[1]; Melanoma LOX IMVI CL10001
  classification of cell line as Low(1), Medium(2) or High(3) sensitivity to compound: 2
[1]; Melanoma M14 (CL10014)
  classification of cell line as Low(1), Medium(2) or High(3) sensitivity to compound: 2
[1]; Melanoma MALME-3M CL10002
  classification of cell line as Low(1), Medium(2) or High(3) sensitivity to compound: 2
[1]; cell line NSCLC NCI-H23(I), CL1001
  sensitivity class NSCLC NCI-H23(I) CL1001: 2
[1]; cell line NSCLC NCI-H332M, CL1017
  sensitivity class NSCLC NCI-H332M CL1017: 2
[1]; cell line NSCLC NCI-H460, CL1021
  sensitivity class NSCLC NCI-H460 CL1021: 2
[1]; cell line NSCLC NCI-H522, CL1003
  sensitivity class NSCLC NCI-H522 CL1003: 3
[1]; cell line Ovarian IGROV1, CL6010
  sensitivity class Ovarian IGROV1 CL6010: 2
[1]; cell line Ovarian OVCAR-3, CL6001
  sensitivity class Ovarian OVCAR-3 CL6001: 2
[1]; cell line Ovarian OVCAR-4, CL6002
  sensitivity class Ovarian OVCAR-4 CL6002: 2
[1]; cell line Ovarian OVCAR-5, CL6003
  sensitivity class Ovarian OVCAR-5 CL6003: 1
[1]; cell line Ovarian OVCAR-8, CL6005
  sensitivity class Ovarian OVCAR-8 CL6005: 2
[1]; cell line Ovarian SK-OV-3, CL6011
  sensitivity class Ovarian SK-OV-3 CL6011: 2
[1]; cell line Prostate DU-145, CL11003
  sensitivity class Prostate DU-145 CL11003: 3
[2]; Colon SW-620 (CL4009)
  -Log (GI50): 3.4
[2]; Leukemia CCRF-CEM(I) (CL7003)
  -Log (GI50): 3.4
[2]; Leukemia HL-60(I) (CL7008)
  -Log (GI50): 3.4
[2]; Leukemia K562(I) CL7005
  -Log (GI50): 3.3
[2]; Leukemia MOLT-4 (CL7006)
  -Log (GI50): 3.4
[2]; Leukemia RPMI-8226(I) (CL7010)
  -Log (GI50): 3.3
[2]; Leukemia SR CL7019
  -Log (GI50): 3.4
[2]; Melanoma LOX IMVI CL10001
  -Log (GI50): 3.3
[2]; Melanoma M14 (CL10014)
  -Log (GI50): 3.4
[2]; Melanoma MALME-3M CL10002
  -Log (GI50): 3.3
[2]
  -Log (GI50): 3.5

— US20020051978A1, “Methods and compositions for the identification, assessment, prevention and therapy of human cancers” (priority 2000, published 2002)
